Values belong to the molecule of their own block, whether it stands above or below them.
Assay: gradient 5% acetonitrile 3 min, to 50% in 2 min, to 85% in 15 min, held 3 min, 100 µL/min
Conditions: column: Zorbax Extend-C18 2.1 x 50 mm; eluents: water / acetonitrile, 0.1% formic acid
Method in brief: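 Mixtures of ~100 pure standards were chromatographed on a Zorbax Extend-C18 column (2.1 × 50 mm, 1.8 μm) at 100 μL/min using water and acetonitrile, each with 0.1% formic acid. Detection used a quadrupole time-of-flight mass spectrometer in positive and negative ionization mode, and data collection spanned 3 months. Retention time was obtained from adduct peaks picked computationally and each checked manually.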

Structure (SMILES): O=C(Nc1ccc2c(c1)CCCN2C(=O)C1CC1)c1cc(Br)ccc1Cl
RP-LC retention time: 879 s

Structure (SMILES): Cc1ccc(C)c(NC(=O)Cn2cnc3nc(N4CCC(C(=O)NC5CC5)CC4)sc3c2=O)c1
RP-LC retention time: 713 s

Structure (SMILES): O=C(CN1CCN(Cc2ccccc2)C(=O)C1=O)N1CCN(c2cccc(Cl)c2)CC1
RP-LC retention time: 828 s

Structure (SMILES): COc1ccc(S(=O)(=O)N2CCCC(C(=O)NC3CCCCC3)C2)cc1C (stereo not drawn)
RP-LC retention time: 962 s

Structure (SMILES): Cc1ccccc1NC(=O)CN1C(=O)NC2(CCCCC2)C1=O
RP-LC retention time: 730 s

Structure (SMILES): O=C(c1ccc2cc[nH]c2c1)N1CCN(C(=O)c2nnn3c2COC(c2ccc(Cl)cc2)C3)CC1 (stereo not drawn)
RP-LC retention time: 918 s

Structure (SMILES): CC(C)CCNS(=O)(=O)c1cc(-c2nc(C(C)(C)C)cs2)cs1
RP-LC retention time: 1310 s

Structure (SMILES): Cc1cc(N2CCN(C(=O)c3ccc(C#N)cc3)CC2)nc2nnc(C)n12
RP-LC retention time: 582 s

Structure (SMILES): COc1ccccc1N1CCN(CCNC(=O)c2c(F)cccc2F)CC1
RP-LC retention time: 567 s

Structure (SMILES): COCCN1C(=O)CCc2cc(NC(=O)C3CCC3)ccc21
RP-LC retention time: 673 s

Structure (SMILES): O=C(Cn1nc2nc(N3CCCC3)ccn2c1=O)NCc1ccc(Cl)cc1
RP-LC retention time: 690 s

Structure (SMILES): Cc1ccc(Oc2nccn3c(=O)n(CC(=O)Nc4ccc(C(C)C)cc4)nc23)cc1
RP-LC retention time: 1030 s

Structure (SMILES): O=C(NCC1CCN(c2cc(-c3cccnc3)[nH]n2)CC1)c1ccc2c(c1)OCO2
RP-LC retention time: 600 s

Structure (SMILES): Cc1cccc(NC(=O)C2CCN(S(=O)(=O)c3ccc4c(c3)NC(=O)C(C)O4)CC2)c1C (stereo not drawn)
RP-LC retention time: 818 s

Structure (SMILES): COC(=O)C1=CN(c2ccccc2)c2ccccc2S1(=O)=O
RP-LC retention time: 777 s

Structure (SMILES): COc1ccc(C(=O)N(CCS(=O)(=O)N2CCNCC2)CC2CCCO2)cc1 (stereo not drawn)
RP-LC retention time: 609 s

Structure (SMILES): COC(=O)c1cc(OCC(=O)Nc2cccc(OC)c2)c2cc(OC)ccc2n1
RP-LC retention time: 811 s

Structure (SMILES): CCOC(=O)C1=C(C)N(CC(=O)NC2CCCC2)c2ncnn2C1c1ccc(C)cc1 (stereo not drawn)
RP-LC retention time: 897 s

Structure (SMILES): Cc1ccc(NC(=O)Nc2nccn(-c3ccc(F)cc3)c2=O)cc1C
RP-LC retention time: 1020 s

Structure (SMILES): CN(CC1CCOC1)C(=O)c1ccc(F)c(Cl)c1 (stereo not drawn)
RP-LC retention time: 724 s

Structure (SMILES): Cc1ccc(NS(=O)(=O)c2cc3n(c2)CCCNC3=O)cc1F
RP-LC retention time: 669 s

Now from value to molecule:

RP-LC retention time: 652 s
Structure (SMILES): CCC(C)N(CCNC(=O)Cn1c(=O)oc2ccccc21)Cc1cccs1 (stereo not drawn)

RP-LC retention time: 1040 s
Structure (SMILES): Cc1ccc(S(=O)(=O)NCCC(=O)N2CCCC2c2nc(-c3ccc(Cl)cc3)no2)cc1 (stereo not drawn)

RP-LC retention time: 963 s
Structure (SMILES): Cc1cc(C)cc(Oc2nccn3c(=O)n(CC(=O)Nc4ccccc4Cl)nc23)c1

RP-LC retention time: 1010 s
Structure (SMILES): COc1ccc(Cl)cc1NC(=O)NC1CCN(c2nc3ccccc3n(C)c2=O)CC1

RP-LC retention time: 905 s
Structure (SMILES): CCNC(=O)N1CCCC(c2cccc(C(=O)NCc3ccccc3C(F)(F)F)c2)C1 (stereo not drawn)

RP-LC retention time: 715 s
Structure (SMILES): Cn1nnc2cc(CNC(=O)c3cccc(Cl)c3)ccc21

RP-LC retention time: 684 s
Structure (SMILES): CN(C)Cc1nc(-c2cn(C)c3ccccc23)no1

RP-LC retention time: 845 s
Structure (SMILES): CCn1c(=O)sc2cc(S(=O)(=O)N3CCC(C(=O)NCc4ccccc4)CC3)ccc21

RP-LC retention time: 776 s
Structure (SMILES): COc1ccc(OC)c(NC(=O)Cn2c(C)cc(-c3nnc(C)o3)c2C)c1

RP-LC retention time: 710 s
Structure (SMILES): COCCn1cc(C(=O)Nc2ccc(N(C)C)cc2)c2nn(-c3ccccc3)c(=O)c-2c1

RP-LC retention time: 619 s
Structure (SMILES): COC[C@@H]1CN(c2ncccn2)C[C@H]1C(=O)N(C)Cc1ccco1

RP-LC retention time: 743 s
Structure (SMILES): O=C(Nc1nsc(-c2ccccc2)n1)c1cccs1

RP-LC retention time: 1100 s
Structure (SMILES): Cc1ccccc1-c1nc(N)n(C(=O)C(C)(C)C)n1

RP-LC retention time: 648 s
Structure (SMILES): CC(C)(C)NC(=O)N1CCN(Cc2nc3cccnc3n2-c2cccc(F)c2)CC1

RP-LC retention time: 1200 s
Structure (SMILES): O=C(Nc1ccc(-c2nc(-c3ccc(F)cc3)no2)cc1)c1ccc(Br)o1

RP-LC retention time: 674 s
Structure (SMILES): O=C(CSc1nc2ccccc2o1)NCCn1nc(-c2ccco2)ccc1=O

RP-LC retention time: 624 s
Structure (SMILES): Cc1nccn1Cc1nc(-c2ccccc2Cl)no1

RP-LC retention time: 620 s
Structure (SMILES): CNC(=O)c1cc(N2CCCC2)nc2c(Cl)cccc12

RP-LC retention time: 684 s
Structure (SMILES): NC(=O)c1cn(Cc2c(F)cccc2F)nn1

RP-LC retention time: 838 s
Structure (SMILES): O=C(NC1CCCCC1)c1cccc(Nc2c(-c3ccccc3)nc3cnccn23)c1

RP-LC retention time: 879 s
Structure (SMILES): CCOC(=O)c1cc(C)nc2c1c(=O)n(Cc1ccccc1)c(=O)n2C

RP-LC retention time: 905 s
Structure (SMILES): Cn1ncc2c(N3CCCC3)nc(C(=O)NCc3ccc(C(F)(F)F)cc3)nc21

Source: the METLIN SMRT retention time set (Domingo-Almenara et al. 2019)
